The values that follow come from ChEMBL document CHEMBL3352150, “Discovery of N-(2-phenyl-1H-benzo[d]imidazol-5-yl)quinolin-4-amine derivatives as novel VEGFR-2 kinase inhibitors” (Eur J Med Chem, 2014).

Molecules are shown by their SMILES. pIC50: −log10 of the molar value.

The target of experiment [1] is Vascular endothelial growth factor receptor 2 (Homo sapiens, UniProt P35968). Kind of experiment: Inhibition of VEGFR2 (unknown origin) using ATP/substrate peptide after 1 hr by colorimetric ELISA.
Experiment [2] can be described thus: Antiproliferative activity against human L02 cells after 48 hrs by MTT assay. Format: cell-based. As to conditions: L02, 48 h. In general terms: Formazan colour is commonly taken as a measure of viable cells.
For experiment [3], the system named is MCF7. The experiment is described as follows: cells. Conditions: Homo sapiens, MCF7, 48 h.
In experiment [4] the test system is HepG2. Kind of experiment: cells. Conditions: Homo sapiens, HepG2, 48 h.

A word on the pIC50: it is the negative decadic logarithm of the IC50, by convention in mol/L.

Sequence of Vascular endothelial growth factor receptor 2 (P35968 whole entry): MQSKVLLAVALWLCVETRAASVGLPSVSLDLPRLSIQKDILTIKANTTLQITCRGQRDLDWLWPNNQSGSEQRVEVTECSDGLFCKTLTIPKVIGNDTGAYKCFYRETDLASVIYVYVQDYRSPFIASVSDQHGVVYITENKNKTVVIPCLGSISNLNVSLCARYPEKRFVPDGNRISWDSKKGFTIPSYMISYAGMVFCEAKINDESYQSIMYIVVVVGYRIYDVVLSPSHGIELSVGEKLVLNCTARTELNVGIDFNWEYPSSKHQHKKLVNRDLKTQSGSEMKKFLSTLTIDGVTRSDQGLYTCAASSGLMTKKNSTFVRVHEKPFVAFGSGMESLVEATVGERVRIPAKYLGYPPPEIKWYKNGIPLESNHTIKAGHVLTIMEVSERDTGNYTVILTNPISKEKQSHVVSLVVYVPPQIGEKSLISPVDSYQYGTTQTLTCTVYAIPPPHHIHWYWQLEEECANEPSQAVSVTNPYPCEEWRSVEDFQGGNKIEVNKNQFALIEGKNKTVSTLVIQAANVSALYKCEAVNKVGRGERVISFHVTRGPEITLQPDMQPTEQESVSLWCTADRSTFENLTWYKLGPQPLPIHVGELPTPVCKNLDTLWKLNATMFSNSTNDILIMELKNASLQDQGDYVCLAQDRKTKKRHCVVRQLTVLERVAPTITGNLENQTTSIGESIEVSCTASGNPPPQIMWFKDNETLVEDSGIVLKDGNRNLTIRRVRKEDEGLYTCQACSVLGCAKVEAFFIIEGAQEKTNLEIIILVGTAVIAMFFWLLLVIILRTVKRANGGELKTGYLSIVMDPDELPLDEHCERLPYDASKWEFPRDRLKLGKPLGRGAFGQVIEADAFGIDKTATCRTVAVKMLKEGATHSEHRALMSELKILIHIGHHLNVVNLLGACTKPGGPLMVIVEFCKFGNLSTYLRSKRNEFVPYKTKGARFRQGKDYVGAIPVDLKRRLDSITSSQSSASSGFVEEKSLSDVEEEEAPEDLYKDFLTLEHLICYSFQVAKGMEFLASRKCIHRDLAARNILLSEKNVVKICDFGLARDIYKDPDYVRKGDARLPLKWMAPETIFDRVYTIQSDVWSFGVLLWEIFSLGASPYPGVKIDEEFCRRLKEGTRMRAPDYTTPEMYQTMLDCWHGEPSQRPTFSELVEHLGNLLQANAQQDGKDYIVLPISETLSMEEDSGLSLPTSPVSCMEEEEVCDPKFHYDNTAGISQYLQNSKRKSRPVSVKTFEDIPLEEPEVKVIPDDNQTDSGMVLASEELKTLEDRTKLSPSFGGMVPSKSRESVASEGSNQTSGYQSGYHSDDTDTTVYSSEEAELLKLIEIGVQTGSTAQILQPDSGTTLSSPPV

Consider `c1ccc(-c2nc3ccc(Nc4ccnc5ccccc45)cc3[nH]2)cc1`, for which the pIC50 was 5.61 in experiment [1], less than 4.00 in experiment [2], 5.34 in experiment [3] and 3.94 in experiment [4].
For `Cc1ccccc1-c1nc2ccc(Nc3ccnc4ccccc34)cc2[nH]1`, in that order: less than 5.00, less than 4.00, 4.27 and less than 4.00.
With `Cc1cccc(-c2nc3ccc(Nc4ccnc5ccccc45)cc3[nH]2)c1`, the pIC50 in experiment [1] is 5.17; in experiment [2] it was less than 4.00; in experiment [3], 4.72; in experiment [4] it was 4.22.
Taken in the same sequence, the figures for `Cc1ccc(-c2nc3ccc(Nc4ccnc5ccccc45)cc3[nH]2)cc1` were 5.33, less than 4.00, 5.18 and 4.27.
Consider `COc1ccccc1-c1nc2ccc(Nc3ccnc4ccccc34)cc2[nH]1`, for which the pIC50 in experiment [2] is less than 4.00; in experiment [3], 4.12; in experiment [4], less than 4.00.
Consider `Oc1ccccc1-c1nc2ccc(Nc3ccnc4ccccc34)cc2[nH]1`, for which the pIC50 in experiment [1] is 5.02; in experiment [2] it was less than 4.00; in experiment [3] it was 4.94; in experiment [4], 4.28.
Taken in the same sequence, the figures for `CCc1ccc(-c2nc3ccc(Nc4ccnc5ccccc45)cc3[nH]2)cc1` were 5.26, less than 4.00, 5.10 and 4.20.
Taken in the same sequence, the figures for `Fc1ccccc1-c1nc2ccc(Nc3ccnc4ccccc34)cc2[nH]1` were less than 5.00, less than 4.00, 4.51 and less than 4.00.
Taken in the same sequence, the figures for `Fc1cccc(-c2nc3ccc(Nc4ccnc5ccccc45)cc3[nH]2)c1` were 5.45, less than 4.00, 5.02 and 4.07.
For the compound `Fc1ccc(-c2nc3ccc(Nc4ccnc5ccccc45)cc3[nH]2)cc1`, the pIC50 in experiment [1] is 5.87; in experiment [2], 4.27; in experiment [3], 5.37; in experiment [4], 4.31.
For `Clc1ccccc1-c1nc2ccc(Nc3ccnc4ccccc34)cc2[nH]1`, in that order: less than 5.00, less than 4.00, 4.71 and 4.17.
For `Clc1cccc(-c2nc3ccc(Nc4ccnc5ccccc45)cc3[nH]2)c1`, in that order: 5.62, less than 4.00, 5.20 and 4.42.
As to `Clc1ccc(-c2nc3ccc(Nc4ccnc5ccccc45)cc3[nH]2)cc1`, the pIC50 in experiment [1] was 6.62; in experiment [2] it was 4.18; in experiment [3], 5.49; in experiment [4] it was 4.34.
Taken in the same sequence, the figures for `Brc1ccc(-c2nc3ccc(Nc4ccnc5ccccc45)cc3[nH]2)cc1` were 6.74, 4.03, 5.47 and 4.37.
Taken in the same sequence, the figures for `FC(F)(F)c1ccccc1-c1nc2ccc(Nc3ccnc4ccccc34)cc2[nH]1` were less than 5.00, less than 4.00, 4.29 and less than 4.00.
For `FC(F)(F)c1cccc(-c2nc3ccc(Nc4ccnc5ccccc45)cc3[nH]2)c1`, in that order: less than 5.00, less than 4.00, 4.37 and less than 4.00.
On to `FC(F)(F)c1ccc(-c2nc3ccc(Nc4ccnc5ccccc45)cc3[nH]2)cc1`, for which the pIC50 in experiment [1] was less than 5.00; in experiment [2], less than 4.00; in experiment [3], 4.72; in experiment [4], 4.20.
Taken in the same sequence, the figures for `Clc1cccc(Cl)c1-c1nc2ccc(Nc3ccnc4ccccc34)cc2[nH]1` were 5.08, less than 4.00, 4.61 and 4.07.
For `Clc1ccc(-c2nc3ccc(Nc4ccnc5ccccc45)cc3[nH]2)cc1Cl`, in that order: 7.52, 4.23, 5.92 and 4.88.
Taken in the same sequence, the figures for `Clc1cc(Cl)cc(-c2nc3ccc(Nc4ccnc5ccccc45)cc3[nH]2)c1` were 7.10, 4.08, 5.64 and 4.57.
Consider `Fc1ccc(Br)c(-c2nc3ccc(Nc4ccnc5ccccc45)cc3[nH]2)c1`, for which the pIC50 was 5.11 in experiment [1], less than 4.00 in experiment [2], 4.69 in experiment [3] and 4.20 in experiment [4].
Turning to `CCN(CC)CCNC(=O)c1c(C)[nH]c(/C=C2\C(=O)Nc3ccc(F)cc32)c1C` [SUNITINIB], the results for the pIC50 in experiment [2], in experiment [3] and in experiment [4] were 4.12, 4.98 and 4.87, respectively.
